Data: US8198274B2, “Substituted indolyl and indazolyl derivatives and uses thereof” (Roche Palo Alto LLC, priority 2008, dated 2012)
Structures can show the parent of a compound that is named as a salt.

Tests used:
[1] = target: T1, human serotonin transporter (hSERT) (Homo sapiens, UniProt P31645); assay: Screening for human serotonin transporter (hSERT) antagonists, scintillation proximity assay, competition with [3H]-Citalopram; format: binding; conditions: membranes of HEK-293 cells, SPA
T1 construct: expressed in transfected cells; Tatsumi et al. 1997), membrane preparation
T1 sequence (P31645 whole entry): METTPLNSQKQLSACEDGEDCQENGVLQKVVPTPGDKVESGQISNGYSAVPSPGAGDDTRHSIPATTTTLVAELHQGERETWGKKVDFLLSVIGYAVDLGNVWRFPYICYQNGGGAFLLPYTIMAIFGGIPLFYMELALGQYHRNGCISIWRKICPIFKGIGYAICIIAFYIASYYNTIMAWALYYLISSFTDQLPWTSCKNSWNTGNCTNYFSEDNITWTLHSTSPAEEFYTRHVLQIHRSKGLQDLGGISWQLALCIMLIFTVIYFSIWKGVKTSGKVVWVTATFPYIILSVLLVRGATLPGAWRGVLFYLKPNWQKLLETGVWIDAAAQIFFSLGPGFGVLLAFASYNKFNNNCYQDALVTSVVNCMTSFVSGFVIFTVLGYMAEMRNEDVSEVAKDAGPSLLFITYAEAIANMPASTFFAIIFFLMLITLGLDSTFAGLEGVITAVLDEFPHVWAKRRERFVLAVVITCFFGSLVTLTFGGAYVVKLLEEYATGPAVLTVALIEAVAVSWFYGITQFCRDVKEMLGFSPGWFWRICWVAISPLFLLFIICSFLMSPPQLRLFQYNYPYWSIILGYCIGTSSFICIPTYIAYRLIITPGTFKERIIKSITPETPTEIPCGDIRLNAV
Description: The screening assay of this example was used to determine the affinity of ligands at the hSERT transporter by competition with [^3H]-Citalopram.
Scintillation Proximity Assay (SPA) works by bringing radioligand within close proximity to the bead's scintillant to stimulate light emission. In this assay, the receptor-containing membranes were pre-coupled to the SPA beads and the binding of the appropriate radioligand to the transporter was measured. The light emission was proportional to the amount of bound radioligand. Unbound radioligand produced no signal as a result of distant proximity to scintillant (lack of energy transfer). […]
Cell membranes were prepared using a membrane preparation buffer of 50 mM TRIS (pH 7.4). […] After a second centrifugation, the pellet was re-homogenized and brought to a final volume determined during the assay. […]
The % inhibition was calculated for each compound tested [(Compound counts per minute (CPM) at maximum concentration-Non-Specific CPM)/Total CPM*100]. […]
[formula] where max=total binding, min=non specific binding, x=concentration (M) of the tested compound and n=Hill slope. The inhibition dissociation constant (Ki) of each compound was determined according to the method of Cheng-Prusoff and then converted into negative logarithm (pKi) of the Ki.

`c1ccc(N2CCOCC2)c(Cc2ccc3[nH]ccc3c2)c1` [Compound 48, 5-(2-Morpholin-4-yl-benzyl)-1H-indole] showed a melting point of 189 to 190 °C.

`c1cc2c(c(Cc3ccc4[nH]ccc4c3)c1)CCNC2` gave a melting point of 194 to 195 °C.

For `c1cc2c(c(Cc3ccc4[nH]ccc4c3)c1)CNCC2`, the melting point was 173 to 174 °C.

With `CNCc1ccccc1Cc1ccc2[nH]ccc2c1` (as salt: hydrochloride) [Compound 1, [2-(1H-Indol-5-ylmethyl)-benzyl]-methyl-amine] the melting point was 198 to 199 °C.

Work on `CNCc1ccccc1C(O)c1ccc2[nH]ccc2c1` (stereo not drawn) [Compound 24, (1H-Indol-5-yl)-(2-methylaminomethyl-phenyl)-methanol] yielded a melting point of 75 to 78 °C.

`NCC(O)c1ccccc1Cc1ccc2[nH]ccc2c1` (stereo not drawn) [Compound 47, 2-Amino-1-[2-(1H-indol-5-ylmethyl)-phenyl]-ethanol] showed a melting point of 70 to 72 °C.

`c1ccc(Cn2ccnc2)c(Cc2ccc3[nH]ccc3c2)c1` [Compound 25, 5-(2-Imidazol-1-ylmethyl-benzyl)-1H-indole] showed a melting point of 61 to 67 °C.

With `CNCc1ccccc1Cc1ccc2cc[nH]c2c1` [Compound 15, [2-(1H-Indol-6-ylmethyl)-benzyl]-methyl-amine] the melting point was 132 °C.

Compound `CNCc1scnc1Cc1ccc2[nH]ccc2c1` [Compound 45, [4-(1H-Indol-5-ylmethyl)-thiazol-5-ylmethyl]-methyl-amine] has a melting point of 152 to 153 °C.

`OCCNCc1ccccc1Cc1ccc2[nH]ccc2c1` [Compound 21, 2-[2-(1H-Indol-5-ylmethyl)-benzylamino]-ethanol] showed a melting point of 117 to 118 °C.

In the case of `c1ccc(CN2CCC2)c(Cc2ccc3[nH]ccc3c2)c1` [Compound 18, 5-(2-Azetidin-1-ylmethyl-benzyl)-1H-indole], the melting point is reported as 128 to 130 °C.

Work on `CNCc1cc(OC)ccc1Cc1ccc2[nH]ccc2c1` [Compound 34, [2-(1H-Indol-5-ylmethyl)-5-methoxy-benzyl]-methyl-amine] yielded a melting point of 155 to 156 °C.

For `CNCc1cc(C#N)ccc1Cc1ccc2[nH]ccc2c1` [Compound 38, 4-(1H-Indol-5-ylmethyl)-3-methylaminomethyl-benzonitrile], the melting point was 144 to 145 °C.

Compound `CNCc1cc(NS(C)(=O)=O)ccc1Cc1ccc2[nH]ccc2c1` [Compound 41, N-[4-(1H-Indol-5-ylmethyl)-3-methylaminomethyl-phenyl]-methanesulfonamide] has a melting point of 125 to 126 °C.

With `CNCc1ccccc1Cc1ccc2[nH]c(S(C)(=O)=O)cc2c1` (as salt: fumarate) [Compound 49, [2-(2-Methanesulfonyl-1H-indol-5-ylmethyl)-benzyl]-methyl-amine] the melting point was 179 to 180 °C.

Work on `CNCc1cccc(Cc2ccc3[nH]ccc3c2)c1` [Compound 32, [3-(1H-Indol-5-ylmethyl)-benzyl]-methyl-amine] yielded a melting point of 153 °C.

In the case of `CNCc1ccccc1Cc1ccc2[nH]cc(C#N)c2c1` [Compound 29, 5-(2-Methylaminomethyl-benzyl)-1H-indole-3-carbonitrile], the melting point is reported as 179 to 180 °C and the Ki [1] is reported as ~0.1 nM.

`CNCc1ccc(C(N)=O)cc1Cc1ccc2[nH]ccc2c1` [Compound 44, 3-(1H-Indol-5-ylmethyl)-4-methylaminomethyl-benzamide] gave a melting point of 97 to 100 °C.

Compound `CNCc1ccc(OC)cc1Cc1ccc2[nH]ccc2c1` [Compound 33, [2-(1H-Indol-5-ylmethyl)-4-methoxy-benzyl]-methyl-amine] has a melting point of 157 to 158 °C.

Work on `CNCc1cc(Cl)ccc1Cc1ccc2[nH]ccc2c1` [Compound 27, [5-Chloro-2-(1H-indol-5-ylmethyl)-benzyl]-methyl-amine] yielded a melting point of 164 to 165 °C.

`CNCc1ccccc1Cc1cccc2[nH]ccc12` [Compound 16, [2-(1H-Indol-4-ylmethyl)-benzyl]-methyl-amine] showed a melting point of 111 to 112 °C.

Compound `CNCc1ccc(C#N)cc1Cc1ccc2[nH]ccc2c1` [Compound 43, 3-(1H-Indol-5-ylmethyl)-4-methylaminomethyl-benzonitrile] has a melting point of 160 to 163 °C.

For `CNCc1cc(N2CCOCC2)ccc1Cc1ccc2[nH]ccc2c1` (as salt: fumarate) [Compound 39, [2-(1H-Indol-5-ylmethyl)-5-morpholin-4-yl-benzyl]-methyl-amine], the melting point was 135 to 136 °C.

With `CNCc1cc(F)ccc1Cc1ccc2[nH]ccc2c1` [Compound 20, [5-Fluoro-2-(1H-indol-5-ylmethyl)-benzyl]-methyl-amine] the melting point was 162 to 163 °C.

`CNCCc1ccccc1Cc1ccc2[nH]ccc2c1` showed a melting point of 95 to 97 °C.

In the case of `O=C1CNCCN1c1ccccc1Cc1ccc2[nH]ccc2c1` [Compound 42, 1-[2-(1H-Indol-5-ylmethyl)-phenyl]-piperazin-2-one], the melting point is reported as 100 to 102 °C.
